Patent US12138256B2, “Treatment of cardiopulmonary disorders” (Bayer Aktiengesellschaft, priority 2021, dated 2024)
Read-outs that look alike come from different tables or passages of the source.

Legend:
[1] = Thermal stability of the solid (90° C., 7 days, HPLC peak areas); format: physicochemical
Protocol: 0.3 mg of the test compound, e.g. comparative example 11 were solved in 0.1 ml dimethylsulfoxide and 0.4 ml acetonitrile. Then 1.0 ml water was added. For complete dissolution the HPLC vial was shaken and sonicated. This solution was immediately analyzed by HPLC (reference at t0). 0.3 mg of the test compound was weighed into another HPLC vial. The vial was capped and stored for 7 days in a heating block at 90° C.
After this time the vial was decapped and 0.1 ml dimethylsulfoxide and 0.4 ml acetonitrile were added to the stressed compound. Then 1.0 ml water was added. For complete dissolution the HPLC vial was shaken and sonicated. The sample was analyzed by HPLC (sample after 1 week). The peak areas in percentage are used for quantification.

[2] = test system: allergen-induced late airway hyperresponsiveness and inflammation in sensitized mice; assay: Chronic asthma model: ovalbumin sensitized BALB/c mice, airway hyperresponsiveness and BAL (C-3.3); format: in vivo, mouse; conditions: for inhibition at 0.1 mg/kg: Mus musculus, dexamethasone 18 h and 1 h before each Ova challenge, comparative example 11 high dose of 100 μg/kg 2 h before
Protocol: The study was conducted to investigate whether inhalative treatment with comparative example 11 has a protective effect on the experimentally allergen-induced late airway hyperresponsiveness and inflammation in sensitized mice. Female BALB/c mice were sensitized and boosted with Ovalbumin (Ova) and aluminium hydroxide adjuvant (day 0. 14 and 21) with the exception of the negative control group receiving NaCl. On day 28 and 29. the animals were challenged with Ova aerosol. On day 30, a hyperresponsiveness test followed by bronchoalveolar lavage (BAL) was performed in all animals of all groups. The treatment groups D (10 μg) and E (100 μg) were treated with comparative example 11 inhalationally 2 h before each Ova challenge. Group A and B, the positive and negative control groups, were treated correspondingly with the vehicle. The Ova-sensitized positive control group A should show the full allergic reaction and, in contrast, the sham-sensitized negative control group B should show no allergic response. As a reference group, the animals of group C were treated inhalative with the corticosteroid dexamethasone but—due to its different mechanism of action—18 h and 1 h before each Ova challenge (on day 27, 28 and 29). On day 30, 24 h after Ova challenge in the late allergic phase, lung function—especially RL—was measured in the orotracheally intubated mice and a test on airway hyperresponsiveness was performed (inhalational methacholine provocation in doubling dose steps). […] These inhibitory effects show the successful therapeutic intervention.

| SMILES | thermal stability [1] | also measured |
| --- | --- | --- |
| O=C(O)c1ccc(CCN(CCc2ccccc2OCc2ccc(-c3nc4cc(OC(F)(F)F)ccc4o3)cc2)C2CCCc3nc(C(=O)O)ccc32)cc1 (single isomer, unassigned) [comparative example 9, 5-([2-(4-carboxyphenyl)ethyl]{2-[2-({4-[5-(trifluoromethoxy)-1,3-benzoxazol-2-yl]benzyl}oxy)-phenyl]ethyl}amino)-5,6,7,8-tetrahydroquinoline-2-carboxylic acid] | limited thermal stability |  |
| O=C(O)CCCCN(CCc1ccccc1OCc1ccc(-c2nc3cc(C(F)(F)F)ccc3o2)cc1)C1CCCc2nc(C(=O)O)ccc21 (single isomer, unassigned) [comparative example 7, 5-[(4-carboxybutyl)(2-[2-({4-[5-(trifluoromethyl)-1,3-benzoxazol-2-yl]benzyl}oxy)phenyl]ethyl)amino]-5,6,7,8-tetrahydroquinoline-2-carboxylic acid] | limited thermal stability |  |
| N#Cc1ccc2oc(-c3ccc(COc4ccccc4CCN(CCCCC(=O)O)C4CCCc5nc(C(=O)O)ccc54)cc3)nc2c1 (single isomer, unassigned) [comparative example 10, 5-{(4-carboxybutyl)[2-(2-{[4-(5-cyano-1,3-benzoxazol-2-yl)benzyl]oxy}phenyl)ethyl]amino}-5,6,7,8-tetrahydroquinoline-2-carboxylic acid] | limited thermal stability |  |
| O=C(O)c1ccc(CCN(CCc2ccccc2OCc2ccc(-c3nc4cc(C(F)(F)F)ccc4o3)cc2)C2CCCc3nc(C(=O)O)ccc32)cc1 (single isomer, unassigned) [comparative example 6, 5-([2-(4-carboxyphenyl)ethyl]{2-[2-({4-[5-(trifluoromethyl)-1,3-benzoxazol-2-yl]benzyl}oxy)phenyl]-ethyl}amino)-5,6,7,8-tetrahydroquinoline-2-carboxylic acid] | limited thermal stability |  |
| O=C(O)CCCCN(CCc1ccccc1OCc1ccc(-c2nc3cc(OC(F)(F)F)ccc3o2)cc1)C1CCCc2nc(C(=O)O)ccc21 (single isomer, unassigned) [comparative example 8, 5-[(4-carboxybutyl){2-[2-({4-[5-(trifluoromethoxy)-1,3-benzoxazol-2-yl]benzyl}oxy)phenyl]ethyl}-amino]-5,6,7,8-tetrahydroquinoline-2-carboxylic acid] | limited thermal stability |  |
| C[C@@H]1C[C@H]2[C@@H]3CCC4=CC(=O)C=C[C@]4(C)[C@@]3(F)[C@@H](O)C[C@]2(C)[C@@]1(O)C(=O)CO [dexamethasone, reference compound] |  | inhibition at 0.1 mg/kg ([2]; read-out: inhibition of the airway hyperresponsiveness (ED100)): 89%; inhibition at 0.1 mg/kg ([2]; read-out: inhibition of the airway hyperresponsiveness (ED150)): 70%; inhibition of the eosinophilic influx ([2]; dexamethasone inhalative): 100% |
